In paper doi:10.1101/2020.06.11.145995v1 (biorxiv, 2020):
Like-named read-outs stand apart in the source and are kept apart here.

Tests used:
Test in all cases: biochemical
[1] = target: ACVR1B (Homo sapiens, UniProt P36896)
[2] = target: ACVR2A (Homo sapiens, UniProt P27037)
[3] = target: ACVRL1 (Homo sapiens, UniProt P37023)
[4] = target: BMPR1A (Homo sapiens, UniProt P36894)
[5] = target: BTK (Homo sapiens, UniProt Q06187)
[6] = target: CAMK2B (Homo sapiens, UniProt Q13554)
[7] = target: CDK3 (Homo sapiens, UniProt Q00526)
[8] = target: CDK4-cyclinD3 (Homo sapiens, UniProt P11802)
[9] = target: CDK7 (Homo sapiens, UniProt P50613)
[10] = target: CDKL5 (Homo sapiens, UniProt O76039)
[11] = target: CIT (Homo sapiens, UniProt O14578)
[12] = target: CLK1 (Homo sapiens, UniProt P49759)
[13] = target: CLK3 (Homo sapiens, UniProt P49761)
[14] = target: CLK4 (Homo sapiens, UniProt Q9HAZ1)
[15] = target: CSF1R (Homo sapiens, UniProt P07333)
[16] = target: CSNK2A1 (Homo sapiens, UniProt P68400)
[17] = target: CSNK2A2 (Homo sapiens, UniProt P19784)
[18] = target: DRAK1 (Homo sapiens, UniProt Q9UEE5)
[19] = target: IGF1R (Homo sapiens, UniProt P08069)
[20] = target: IKK-epsilon (Homo sapiens, UniProt Q14164)
[21] = target: INSR (Homo sapiens, UniProt P06213)
[22] = target: ITK (Homo sapiens, UniProt Q08881)
[23] = target: JNK3 (Homo sapiens, UniProt P53779)
[24] = target: MAP3K2 (Homo sapiens, UniProt Q9Y2U5)
[25] = target: MAP4K4 (Homo sapiens, UniProt O95819)
[26] = target: MARK4 (Homo sapiens, UniProt Q96L34)
[27] = target: MET(Y1235D) (Homo sapiens, UniProt P08581, Y1235D)
[28] = target: MLCK (Homo sapiens, UniProt Q32MK0)
[29] = target: MYLK4 (Homo sapiens, UniProt Q86YV6)
[30] = target: MYO3B (Homo sapiens, UniProt Q8WXR4)
[31] = read-out: HYJ-2-002-1 (1uM) % control
[32] = read-out: CPT-1-70-1 (1uM) % control

CSF1R, sequence (P07333 whole entry): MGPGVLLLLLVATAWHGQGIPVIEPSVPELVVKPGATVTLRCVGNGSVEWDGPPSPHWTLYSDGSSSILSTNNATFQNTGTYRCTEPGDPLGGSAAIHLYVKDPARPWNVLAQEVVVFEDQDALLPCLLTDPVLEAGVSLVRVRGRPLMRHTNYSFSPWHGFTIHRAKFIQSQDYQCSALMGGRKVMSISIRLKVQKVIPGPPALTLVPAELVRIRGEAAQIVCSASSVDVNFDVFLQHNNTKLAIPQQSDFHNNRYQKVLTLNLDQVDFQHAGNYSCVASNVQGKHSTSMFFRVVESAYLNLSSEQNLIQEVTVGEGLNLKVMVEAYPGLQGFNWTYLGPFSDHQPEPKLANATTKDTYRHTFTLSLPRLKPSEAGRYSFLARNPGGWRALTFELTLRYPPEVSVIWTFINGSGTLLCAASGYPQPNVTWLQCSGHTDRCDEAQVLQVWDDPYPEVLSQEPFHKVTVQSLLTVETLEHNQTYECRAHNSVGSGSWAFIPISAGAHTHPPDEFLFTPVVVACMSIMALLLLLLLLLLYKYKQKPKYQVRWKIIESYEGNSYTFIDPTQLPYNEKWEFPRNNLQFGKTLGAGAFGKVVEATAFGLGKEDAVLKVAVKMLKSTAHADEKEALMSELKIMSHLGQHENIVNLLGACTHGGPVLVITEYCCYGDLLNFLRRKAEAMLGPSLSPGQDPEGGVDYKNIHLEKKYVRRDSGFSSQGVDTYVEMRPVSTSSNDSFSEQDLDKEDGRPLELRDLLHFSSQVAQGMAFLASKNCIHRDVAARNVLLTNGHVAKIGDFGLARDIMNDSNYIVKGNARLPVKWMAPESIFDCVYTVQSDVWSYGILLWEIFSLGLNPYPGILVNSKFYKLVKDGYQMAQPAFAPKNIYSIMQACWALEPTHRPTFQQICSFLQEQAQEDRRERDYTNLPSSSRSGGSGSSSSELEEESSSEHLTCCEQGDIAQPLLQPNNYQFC
CSNK2A1, sequence (P68400 whole entry): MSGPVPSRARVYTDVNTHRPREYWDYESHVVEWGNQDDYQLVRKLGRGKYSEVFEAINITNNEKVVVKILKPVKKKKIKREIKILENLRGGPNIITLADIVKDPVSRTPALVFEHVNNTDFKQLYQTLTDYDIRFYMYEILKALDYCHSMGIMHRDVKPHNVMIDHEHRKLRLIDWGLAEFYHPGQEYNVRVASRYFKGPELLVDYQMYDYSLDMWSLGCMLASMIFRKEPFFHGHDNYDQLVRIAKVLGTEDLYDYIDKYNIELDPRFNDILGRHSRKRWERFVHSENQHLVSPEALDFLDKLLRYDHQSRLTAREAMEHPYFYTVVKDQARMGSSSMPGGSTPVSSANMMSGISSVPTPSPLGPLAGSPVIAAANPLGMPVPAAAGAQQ
CLK3, sequence (P49761 whole entry): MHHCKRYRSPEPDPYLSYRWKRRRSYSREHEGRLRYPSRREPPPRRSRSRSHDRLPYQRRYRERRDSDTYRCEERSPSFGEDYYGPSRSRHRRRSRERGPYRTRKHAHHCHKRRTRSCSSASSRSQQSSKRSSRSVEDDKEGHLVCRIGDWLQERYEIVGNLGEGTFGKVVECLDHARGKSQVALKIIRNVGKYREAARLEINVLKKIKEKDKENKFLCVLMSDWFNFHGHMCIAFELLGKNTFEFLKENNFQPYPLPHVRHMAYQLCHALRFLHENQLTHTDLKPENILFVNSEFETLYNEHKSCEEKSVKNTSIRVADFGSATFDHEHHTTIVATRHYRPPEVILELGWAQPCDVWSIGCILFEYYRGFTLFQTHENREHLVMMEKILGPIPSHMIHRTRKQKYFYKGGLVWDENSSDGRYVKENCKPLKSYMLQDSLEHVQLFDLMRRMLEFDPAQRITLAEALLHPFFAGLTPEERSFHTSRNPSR
JNK3, sequence (P53779 whole entry): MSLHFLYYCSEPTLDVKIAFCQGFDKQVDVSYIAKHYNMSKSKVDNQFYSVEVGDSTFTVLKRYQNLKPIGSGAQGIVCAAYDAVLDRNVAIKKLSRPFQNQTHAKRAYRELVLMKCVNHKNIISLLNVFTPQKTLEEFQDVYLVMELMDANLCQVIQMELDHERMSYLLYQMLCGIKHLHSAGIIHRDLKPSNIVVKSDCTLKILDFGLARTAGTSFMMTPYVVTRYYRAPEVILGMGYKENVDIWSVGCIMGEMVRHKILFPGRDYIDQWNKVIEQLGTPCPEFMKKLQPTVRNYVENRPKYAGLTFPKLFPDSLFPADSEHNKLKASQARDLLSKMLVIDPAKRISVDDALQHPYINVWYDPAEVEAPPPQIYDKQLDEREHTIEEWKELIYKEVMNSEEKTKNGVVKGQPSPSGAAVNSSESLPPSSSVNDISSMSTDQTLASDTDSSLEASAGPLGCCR
MAP4K4, sequence (O95819 whole entry): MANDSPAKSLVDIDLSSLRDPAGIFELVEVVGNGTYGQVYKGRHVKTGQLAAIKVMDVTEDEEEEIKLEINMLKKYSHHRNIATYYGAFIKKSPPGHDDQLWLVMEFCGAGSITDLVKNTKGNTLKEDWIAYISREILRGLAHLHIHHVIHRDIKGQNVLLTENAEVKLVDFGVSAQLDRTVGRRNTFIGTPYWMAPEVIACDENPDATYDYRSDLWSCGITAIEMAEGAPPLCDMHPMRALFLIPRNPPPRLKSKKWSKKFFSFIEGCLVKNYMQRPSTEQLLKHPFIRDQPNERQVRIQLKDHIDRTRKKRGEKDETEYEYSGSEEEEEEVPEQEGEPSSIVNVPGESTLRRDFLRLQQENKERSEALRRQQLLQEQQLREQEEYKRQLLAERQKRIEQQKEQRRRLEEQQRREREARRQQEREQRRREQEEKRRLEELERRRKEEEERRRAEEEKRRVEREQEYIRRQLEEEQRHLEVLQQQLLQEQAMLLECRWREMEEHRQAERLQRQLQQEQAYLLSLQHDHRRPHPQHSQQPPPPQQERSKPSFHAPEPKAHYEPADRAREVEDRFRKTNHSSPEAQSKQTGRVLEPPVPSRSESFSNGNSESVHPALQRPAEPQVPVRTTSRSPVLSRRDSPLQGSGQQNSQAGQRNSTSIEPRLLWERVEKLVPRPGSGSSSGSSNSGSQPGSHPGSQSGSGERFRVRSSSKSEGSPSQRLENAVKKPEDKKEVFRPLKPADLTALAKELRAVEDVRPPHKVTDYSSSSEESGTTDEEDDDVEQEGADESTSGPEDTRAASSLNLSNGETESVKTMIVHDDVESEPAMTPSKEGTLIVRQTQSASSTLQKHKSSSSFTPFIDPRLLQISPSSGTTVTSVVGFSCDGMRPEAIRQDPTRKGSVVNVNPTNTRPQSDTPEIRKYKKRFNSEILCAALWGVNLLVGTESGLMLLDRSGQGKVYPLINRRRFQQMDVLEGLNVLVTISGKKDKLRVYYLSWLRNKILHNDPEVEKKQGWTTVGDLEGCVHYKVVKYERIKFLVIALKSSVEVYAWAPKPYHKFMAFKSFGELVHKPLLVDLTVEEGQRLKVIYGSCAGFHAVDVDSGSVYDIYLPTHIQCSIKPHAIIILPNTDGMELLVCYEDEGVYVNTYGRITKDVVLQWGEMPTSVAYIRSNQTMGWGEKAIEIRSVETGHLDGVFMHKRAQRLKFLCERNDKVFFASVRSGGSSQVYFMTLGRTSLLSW
CDKL5, sequence (O76039 whole entry): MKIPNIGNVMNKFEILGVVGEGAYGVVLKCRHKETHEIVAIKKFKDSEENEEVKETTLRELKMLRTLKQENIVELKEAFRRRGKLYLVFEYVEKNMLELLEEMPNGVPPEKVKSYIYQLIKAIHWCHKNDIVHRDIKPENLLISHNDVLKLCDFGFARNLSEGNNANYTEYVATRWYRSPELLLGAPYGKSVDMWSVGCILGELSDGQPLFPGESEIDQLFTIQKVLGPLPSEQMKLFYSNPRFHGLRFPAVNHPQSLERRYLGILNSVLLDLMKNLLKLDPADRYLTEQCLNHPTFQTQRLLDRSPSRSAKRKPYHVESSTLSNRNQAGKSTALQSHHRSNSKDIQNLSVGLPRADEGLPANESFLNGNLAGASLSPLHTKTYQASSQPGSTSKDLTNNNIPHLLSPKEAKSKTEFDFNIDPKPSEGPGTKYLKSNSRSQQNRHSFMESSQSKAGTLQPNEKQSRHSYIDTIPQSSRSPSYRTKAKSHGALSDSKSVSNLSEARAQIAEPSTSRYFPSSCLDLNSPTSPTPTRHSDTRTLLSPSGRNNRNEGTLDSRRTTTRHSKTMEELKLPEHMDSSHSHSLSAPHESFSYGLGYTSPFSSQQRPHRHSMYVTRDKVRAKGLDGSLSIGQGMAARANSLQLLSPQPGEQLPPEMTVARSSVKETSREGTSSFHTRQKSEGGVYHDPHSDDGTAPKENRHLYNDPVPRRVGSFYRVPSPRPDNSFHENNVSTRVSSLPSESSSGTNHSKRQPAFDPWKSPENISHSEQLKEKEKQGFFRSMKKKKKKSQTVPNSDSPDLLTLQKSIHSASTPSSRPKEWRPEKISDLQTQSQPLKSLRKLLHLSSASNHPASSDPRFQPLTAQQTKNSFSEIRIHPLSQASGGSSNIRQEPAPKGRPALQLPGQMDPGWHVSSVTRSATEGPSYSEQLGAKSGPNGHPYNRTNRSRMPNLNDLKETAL
DRAK1, sequence (Q9UEE5 whole entry): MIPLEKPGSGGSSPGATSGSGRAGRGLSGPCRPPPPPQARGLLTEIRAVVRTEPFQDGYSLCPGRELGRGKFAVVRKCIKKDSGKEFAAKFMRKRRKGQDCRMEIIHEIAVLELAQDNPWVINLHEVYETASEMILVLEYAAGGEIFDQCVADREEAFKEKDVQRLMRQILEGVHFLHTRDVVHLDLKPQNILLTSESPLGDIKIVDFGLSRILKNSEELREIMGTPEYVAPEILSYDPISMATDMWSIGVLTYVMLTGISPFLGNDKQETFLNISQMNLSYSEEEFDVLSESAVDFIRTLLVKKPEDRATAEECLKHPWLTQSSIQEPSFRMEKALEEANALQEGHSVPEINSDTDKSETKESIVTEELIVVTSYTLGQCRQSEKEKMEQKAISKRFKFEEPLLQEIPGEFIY

Question: For `CCN1CCN(Cc2ccc(NC(=O)c3ccc(C)c(CCc4cnc5[nH]ccc5c4OC)c3)cc2C(F)(F)F)CC1` [HYJ-2-002-1], which remaining activity at 1 µM [1, 31] is on record?
Answer: 100%

Question: What about the remaining activity at 1 µM [2, 31] of the same molecule?
Answer: 100%

Question: What about the remaining activity at 1 µM [3, 31] of the same molecule?
Answer: 100%

Question: What about the remaining activity at 1 µM [4, 31] of the same molecule?
Answer: 100%

Question: What about the remaining activity at 1 µM [5, 31] of the same molecule?
Answer: 8.1%

Question: What about the remaining activity at 1 µM [6, 31] of the same molecule?
Answer: 74%

Question: And the remaining activity at 1 µM [7, 31]?
Answer: 99%

Question: And the remaining activity at 1 µM [8, 31]?
Answer: 100%

Question: What about the remaining activity at 1 µM [9, 31] of the same molecule?
Answer: 44%

Question: What about the remaining activity at 1 µM [10, 31] of the same molecule?
Answer: 100%

Question: What about the remaining activity at 1 µM [11, 31] of the same molecule?
Answer: 6.7%

Question: And the remaining activity at 1 µM [12, 31]?
Answer: 57%

Question: And the remaining activity at 1 µM [13, 31]?
Answer: 88%

Question: What about the remaining activity at 1 µM [14, 31] of the same molecule?
Answer: 69%

Question: And the remaining activity at 1 µM [15, 31]?
Answer: 0.45%

Question: And the remaining activity at 1 µM [16, 31]?
Answer: 94%

Question: What about the remaining activity at 1 µM [17, 31] of the same molecule?
Answer: 100%

Question: And the remaining activity at 1 µM [18, 31]?
Answer: 82%

Question: What about the remaining activity at 1 µM [19, 31] of the same molecule?
Answer: 100%

Question: And the remaining activity at 1 µM [20, 31]?
Answer: 94%

Question: What about the remaining activity at 1 µM [21, 31] of the same molecule?
Answer: 92%

Question: What about the remaining activity at 1 µM [22, 31] of the same molecule?
Answer: 75%

Question: And the remaining activity at 1 µM [23, 31]?
Answer: 75%

Question: And the remaining activity at 1 µM [24, 31]?
Answer: 26%

Question: What about the remaining activity at 1 µM [25, 31] of the same molecule?
Answer: 11%

Question: What about the remaining activity at 1 µM [26, 31] of the same molecule?
Answer: 94%

Question: What about the remaining activity at 1 µM [27, 31] of the same molecule?
Answer: 83%

Question: And the remaining activity at 1 µM [28, 31]?
Answer: 89%

Question: What about the remaining activity at 1 µM [29, 31] of the same molecule?
Answer: 100%

Question: What about the remaining activity at 1 µM [30, 31] of the same molecule?
Answer: 49%

Question: Which results are given for `CN1CCN(c2ccc(Nc3nc(Oc4ccc(NC(=O)CCl)cc4)c4cc[nH]c4n3)cc2)CC1` [CPT1-70-1]?
Answer: remaining activity at 1 µM [1, 32]: 100%; remaining activity at 1 µM [2, 32]: 100%; remaining activity at 1 µM [3, 32]: 100%; remaining activity at 1 µM [4, 32]: 100%; remaining activity at 1 µM [5, 32]: 7%; remaining activity at 1 µM [6, 32]: 100%; remaining activity at 1 µM [7, 32]: 100%; remaining activity at 1 µM [8, 32]: 100%; remaining activity at 1 µM [9, 32]: 100%; remaining activity at 1 µM [10, 32]: 100%; remaining activity at 1 µM [11, 32]: 26%; remaining activity at 1 µM [12, 32]: 5.8%; remaining activity at 1 µM [13, 32]: 82%; remaining activity at 1 µM [14, 32]: 6.5%; remaining activity at 1 µM [15, 32]: 12%; remaining activity at 1 µM [16, 32]: 35%; remaining activity at 1 µM [17, 32]: 28%; remaining activity at 1 µM [18, 32]: 14%; remaining activity at 1 µM [19, 32]: 62%; remaining activity at 1 µM [20, 32]: 100%; remaining activity at 1 µM [21, 32]: 17%; remaining activity at 1 µM [22, 32]: 0.85%; remaining activity at 1 µM [23, 32]: 4.6%; remaining activity at 1 µM [24, 32]: 37%; remaining activity at 1 µM [25, 32]: 49%; remaining activity at 1 µM [26, 32]: 1.8%; remaining activity at 1 µM [27, 32]: 23%; remaining activity at 1 µM [28, 32]: 100%; remaining activity at 1 µM [29, 32]: 92%; remaining activity at 1 µM [30, 32]: 100%
